Experimental data taken from article PMC11351612, “Heteronuclear Complexes with Promising Anticancer Activity against Colon Cancer” (Biomedicines, 2024).
Read-outs that look alike come from different tables or passages of the source.

Tests used:
Caco-2/PD7 cells [1] = experiment: MTT cell proliferation assay, Caco-2/PD7; format: cell-based, human; details: MTT, 72 h; mean ± SE of at least three determinations
Protocol: (§1) Cell culture. Human colon cancer Caco-2 cells (PD7 and TC7 clones) were kindly provided by Dr. Edith Brot-Laroche (Université Pierre et Marie Curie-Paris 6, UMR S 872, Les Cordeliers, Lyon, France) and grown in Dulbecco’s Modified Eagles medium (DMEM) (Gibco Invitrogen, Paisley, UK) supplemented with 20% foetal bovine serum (FBS), 1% non-essential amino acids, 1% streptomycin (1000 μg/mL), 1% penicillin (1000 μg/mL), and 1% amphotericin (250 U/mL). Caco-2 cells were maintained at 37 °C in a humidified atmosphere at 5% CO2.
(§2) Cell proliferation assay. Cell proliferation was measured using the 3-(4,5-dimethyl-2-thiazoyl)-2,5-diphenyltetrazolium bromide (MTT) assay, as previously described. Caco-2/TC7 cells were seeded in a 96-well plate at a density of 4000 cells/well and grown for 24 h before being treated with each complex or DMSO (used as control). After 72 h of incubation with the complexes, 10 μL of MTT (5 mg/mL) were added and incubation was continued at 37 °C for 3 h. Inversion removed the medium and 100 μL of DMSO were added to each well. Absorbance at 560 nm, proportional to many living cells, was measured by spectrophotometry (SPECTROstar Nano, BMG LABTECH, Ortenberg, Germany) and converted into a percentage (%) of growth inhibition.
(§3) The antiproliferative effects of the mononuclear and heteropolinuclear complexes were tested on two different Caco-2 cancer cell lines (PD7 and […]). […] Caco-2 cells of both PD7 and TC7 clones were exposed to increasing concentrations of the assayed compounds through dose–response/cell viability analysis. The results in terms of the IC50 parameter (Table 4) were obtained by using the MTT protocol.

Caco-2/TC7 cells = experiment: MTT cell proliferation assay, Caco-2/TC7; format: cell-based, human; details: 72 h, mean ± SE of at least three determinations
Protocol: as §1, §2, §3

[2] = tested on: pIRES2-EGFP (5308 pb) plasmid DNA; parameters: method as in PMID 24732792, PMID 3707609; details: cited from earlier work
[3] = Distribution coefficient (logP7.4), n-octanol-water shake-flask; format: physicochemical; details: n-octanol / buffered saline pH 7.4, shake-flask
Protocol: Distribution coefficient (logP7.4). The n-octanol-water coefficients of the complexes were determined using a shake-flask method, as previously reported. Briefly, buffered-saline distilled water (100 mL, phosphate buffer [PO4^3−] = 10 mM, [NaCl] = 0.15 M, pH 7.4) and n-octanol (100 mL) were shaken together for 72 h to allow for saturation of both phases. Approximately 1 mg of the complexes was dissolved in 5 mL of the aqueous phase and 5 mL of the organic phase was added, mixing them for 10 min. The resulting emulsion was centrifuged to separate the phases. The concentration of the compounds in each phase was determined using UV-vis absorbance spectroscopy. The logP7.4 was defined as log{[compound(organic)]/[compound(aqueous)]}.

Caco-2/PD7 cells [4] = experiment: Annexin V/propidium iodide apoptosis assay, Caco-2/PD7; format: cell-based, human; details: Caco-2/PD7, annexin V/PI
Protocol: Study of cell death. After the appropriate incubation, cells were collected and stained with annexin V-FTIC, according to the manufacturer’s instructions. A negative control was prepared, containing unreacted cells to define the basal level of apoptotic and necrotic or dead cells. After incubation, the cells were transferred to flow-cytometry tubes and washed twice with temperate phosphate-buffered saline (PBS), suspended in 100 μL annexin V binding buffer (10 mM Hepes/NaOH, pH 7.4, 140 mM NaCl, 2.5 mM CaCl2), then 5 μL of annexin V-FITC, and 5 μL of PI was added to each 100 μL of cell suspension. After incubation for 15 min at room temperature in the dark, 400 μL of 1× annexin binding buffer was added and analysed by flow cytometry within one hour. The signal intensity was measured using a FACSARIA BD and analysed using FASCDIVA BD.
This inhibition of apoptosis produces a fast growth and proliferation of cancerous cells. The population of early and late apoptotic cells increased to 35% after treatment with complex 1 in comparison with the vehicle-treated cells (12%). […] Additionally, the effect observed after treating the cells with a dosage equal to the IC50 concentration is time-dependent. […]

ct-DNA (calf thymus DNA) [5] = tested on: ct-DNA (calf thymus DNA); parameters: method as in PMID 20926136; details: cited from earlier work
A2780/R = tested on: A2780/R; parameters: method as in PMID 19937669; details: cisplatin-resistant ovarian cancer cell line; cited from earlier work
ct-DNA (calf thymus DNA) [6] = experiment: ct-DNA binding constant by UV-vis titration (Benesi-Hildebrand); details: complex 20 μM, ct-DNA 0-100 μM, Tris-HCl pH 7.2
Protocol: A ctDNA solution was prepared at 1 mg/mL in tris (tris(hydroxymethyl)aminomethane)/HCl (0.1 M, pH 7.2). Then, the purity of the ctDNA was checked, recording its spectra and calculating the absorption ratio between 260 and 280 nm. This experiment also provides the means to calculate the concentration of ctDNA using the Beer–Lambert formula, with the extinction coefficient of 6600 M^−1cm^−1. Every experiment was corrected with a baseline of the buffer and the corresponding concentration of dimethylsulfoxide. The addition of DNA solution was performed in both assay and reference cuvettes. Then, the binding constant was calculated using the modified Benesi–Hildebrand equation. Kb is the binding constant, εf, εa, and εb are the extinction coefficients for the free compound, the apparent coefficient (calculated as the ratio of the absorbance and the concentration of the compound in the experiment), and the compound–DNA complex, respectively. […]
The binding capabilities of [Cu{Au(Spy)(PTA)}2]PF6 (1) and [Au(Spy)(PTA)] were estimated towards […] by recording the electronic absorption spectra throughout their interaction. The absorbance measurements were performed by successive additions of a DNA stock solution (10, 20, 30, 40 up to 100 μL) which afforded the final concentration of ct-DNA (from 0 to 100 μM) while maintaining the concentration of the complexes (20 μM). […]

A2780/S = tested on: A2780/S; parameters: method as in PMID 19937669; details: ovarian cancer cell line; cited from earlier work
[7] = tested on: pIRES2-EGFP (5308 pb) plasmid DNA; experiment: Gel electrophoretic mobility of plasmid DNA; format: binding; details: metal-to-base pair ratios 0.5, 1, 2; 0.8% agarose gel
Protocol: Adducts with pIRES2-EGFP (5308 pb) plasmid DNA (Catalog #6029-1) were prepared by adding the required volume of a freshly prepared solution of metal complexes in MilliQ water. The concentration of pIRES2-EGFP in the reaction mixture was 117 ng/µL, and the complexes’ concentration was varied to give different metal-to-base pair stoichiometries (0.5, 1 and 2). The mobility of the metal complex-treated pIRES2-EGFP samples was analysed by gel electrophoresis on a 0.8% (w/v) agarose gel (Boehringer-Mannheim, Mannheim, Germany) at […] at 25 °C in Tris-acetate/EDTA buffer. The gel was stained for 30 min in […] (w/v) ethidium bromide and the bands were visualised with a UVP gel scanner.
In addition, the interaction of both complexes with DNA was also studied by their ability to modify the electrophoretic mobility of the pIRES2-EGFP (5308 pb) plasmid DNA and compared to cisplatin (Figure 7).

[8] = tested on: differentiated Caco-2/PD7 cells; experiment: Cell viability of differentiated (enterocyte-like) Caco-2/PD7 cells; format: cell-based, human
Protocol: For cell viability studies of differentiated (enterocyte-like) cells, Caco-2/PD7 cells were seeded on 96-well plates at a density of 4 × 10^3 cells/well and incubated for approximately 10–15 days, changing the culture medium every 3 days, up to reaching confluence—the moment in which the cells were treated with the complexes at concentrations equal to their mean IC50 and 2 × IC50 values.
It is well known that the Caco-2 cell line undergoes spontaneous differentiation into enterocytic-like cells when it reaches confluency. As a result, these cells become polarised, expressing apical and basolateral surfaces with established tight junctions. This allowed for the evaluation of the cytotoxic impact of the complexes on differentiated cells (acting as noncarcinogenic) and a comparison with the viability of undifferentiated cells. Thus, the toxicity of the two heteronuclear compounds has been studied by cell viability experiments by treatment of Caco-2/PD7 cells after differentiation with complexes 1 and 2 at the corresponding concentrations equivalent to IC50 and 2 × IC50 values for 72 h. The results expressed as the % of cell viability observed after treatment with the complexes (or 100% for non-treated control cells) are summarised in Figure S16 (Supplementary Materials). […] However, the cell viability is around 90% even when the cells are treated with double the IC50 concentration.

Question: For `CC(=O)OC[C@H]1O[C@@H]([S-])[C@H](OC(C)=O)[C@@H](OC(C)=O)[C@@H]1OC(C)=O.CCP(CC)CC.[Au+]` [Auranofin, reference compound], which IC50 (Caco-2/PD7 cells [1]) is on record?
Answer: 1800 ± 100 nM

Question: And the IC50 (Caco-2/TC7 cells)?
Answer: 2100 ± 400 nM

Question: What about the “Reactivity with DNA” value [2] of the same compound?
Answer: lack of reactivity

Question: What about the logP [3] of the same compound?
Answer: −2.53

Question: What about the “Cell death stage after treatment” value (Caco-2/PD7 cells [4]) of the same compound?
Answer: most cells being found in late-stage apoptosis and necrosis

Question: With `CC[n+]1c(-c2ccccc2)c2cc(N)ccc2c2ccc(N)cc21` [EB, ethidium bromide] as the compound, how does the “DNA binding constant Kb” value (ct-DNA (calf thymus DNA) [5]) read?
Answer: 1.23(±0.07) × 10^5 M^−1

Question: With `c1ccc([S][Au][P]23CN4CN(CN(C4)C2)C3)nc1` [[Au(Spy)(PTA)]] as the compound, how does the IC50 (Caco-2/PD7 cells [1]) read?
Answer: 2640 ± 250 nM

Question: What about the IC50 (A2780/R) of the same compound?
Answer: 8200 nM

Question: What about the IC50 (Caco-2/TC7 cells) of the same compound?
Answer: 2030 ± 20 nM

Question: What about the “DNA binding constant Kb” value (ct-DNA (calf thymus DNA) [6]) of the same compound?
Answer: 90600 M⁻¹

Question: What about the IC50 (A2780/S) of the same compound?
Answer: 9600 nM

Question: What about the “Effect on electrophoretic mobility of plasmid DNA” value [7] of the same compound?
Answer: does not affect the mobility

Question: For `N.N.[Cl][Pt][Cl]` [cisplatin], which “Effect on electrophoretic mobility of plasmid DNA” value [7] is on record?
Answer: greatly alters the electrophoretic mobility

Question: For [Zn{Au(PTA)(Spy)}2]Cl2 [compound 3], which “Cell viability of differentiated Caco-2 cells at 2 × IC50” value ([8]; differentiated Caco-2/PD7, concentration = 2 × IC50, 72 h) is on record?
Answer: 93.18 ± 11.99%

Question: What about the “Cell viability of differentiated Caco-2 cells at IC50” value ([8]; differentiated Caco-2/PD7, concentration = IC50, 72 h) of the same compound?
Answer: 98.87 ± 21.63%
